For series [1], the system named is Q7 cells. As to the kind of experiment: Cellular lipid oxidation assay (BODIPY 581/591 C11, RSL3-treated Q7 cells). The settings on record: RSL3 2 μM, 6-point titration, time-lapse microscopy. Format: cell-based, mouse. The protocol:
Ferroptosis was induced by RSL3 (2 μM final concentration) in Q7 cells as described above. The protective activity of co-treated compounds was assessed also as described above. The rate of cellular lipid oxidation after GPX4 inhibition was assessed by monitoring the time-dependent changes in green fluorescence of cells pre-labeled with BODIPY™ 581/591 C11 dye (5 μM, 30-minute labeling period; Thermo Fisher/Invitrogen) using the IncuCyte S3 live-cell imaging apparatus (Sartorius) using a 10x objective. Cells (three images per field; at least three replicate wells per condition) were imaged once hourly for up to 18 hours after compound and RSL3 addition. Quantification of cell images was performed using the IncuCyte Zoom software using the Basic Analyzer tool which utilized an algorithm that calculated the total green-positive area per well where “green-positive” was defined as 1.45 times the local background-subtracted fluorescent signal. After a 2-3-hour lag period post-RSL3 treatment, the cellular green fluorescence signal began increasing. The rate of change in total green-positive area per well from 3–9 hours post-compound treatment was calculated, then expressed relative to that observed in the RSL3-only control treatment group, which was defined as 100%.

Series [2] addresses T1, Rabbit 15-lipoxygenase (rLOX15) (Oryctolagus cuniculus, UniProt P12530).
T1 construct: purchased Enzo Life Sciences, Inc. BML-PL015
T1 sequence (P12530 1-663): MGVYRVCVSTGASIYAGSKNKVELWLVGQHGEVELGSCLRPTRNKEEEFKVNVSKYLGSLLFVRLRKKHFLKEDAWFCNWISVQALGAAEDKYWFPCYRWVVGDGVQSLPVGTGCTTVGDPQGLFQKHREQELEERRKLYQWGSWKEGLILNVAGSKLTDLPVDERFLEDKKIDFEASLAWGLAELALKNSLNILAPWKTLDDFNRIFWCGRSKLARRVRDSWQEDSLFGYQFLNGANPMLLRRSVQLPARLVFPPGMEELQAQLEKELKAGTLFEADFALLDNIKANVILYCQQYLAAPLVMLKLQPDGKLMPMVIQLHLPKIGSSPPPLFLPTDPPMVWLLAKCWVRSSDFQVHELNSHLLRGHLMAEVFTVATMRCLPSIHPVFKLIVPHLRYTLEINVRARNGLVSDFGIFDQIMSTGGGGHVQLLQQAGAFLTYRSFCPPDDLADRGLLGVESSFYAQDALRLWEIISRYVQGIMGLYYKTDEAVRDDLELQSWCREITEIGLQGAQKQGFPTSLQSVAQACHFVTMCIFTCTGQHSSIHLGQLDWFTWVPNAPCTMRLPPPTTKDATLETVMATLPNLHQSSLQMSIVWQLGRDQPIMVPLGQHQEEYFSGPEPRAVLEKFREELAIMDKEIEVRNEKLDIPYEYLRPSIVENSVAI
As to the kind of experiment: Lipoxygenase enzyme inhibition assay. To be noted: for inhibition of rabbit 15-LO enzyme activity: arachidonic acid as substrate, up to 100 μM; for IC50 / activity at 100 µM: rabbit 15-LO; for IC50: 50 μM arachidonic acid substrate; for activity at 100 µM: compound 100 μM, read-out: 15-Lipoxygenase Enzyme Assay % activity at 100 μM. The series is classed as biochemical. The protocol:
Rabbit 15-lipoxygenase (rLOX15, part number BML-PL015, lot number 3-P9009a) was obtained from Enzo Life Sciences, Inc. Sodium cholate (part number C6445, lot number 094K0209) was obtained from Sigma-Aldrich.
Stock solutions of test compounds were prepared in DMSO and then diluted to final assay concentrations in cholate mix such that final cholate and DMSO concentrations were maintained at 0.2%.

For series [3], the system named is Mouse striatal Q7 cells (STHdhQ7/Q7). As to the kind of experiment: RSL3 ferroptosis cell rescue (cellular survival assay, CellTiter-Glo).
The subject of series [4] is 15-HETE release from Q7 cells. In words: Targeted arachidonate metabolite release cellular assay (RSL3-treated Q7 cells). The series is classed as cell-based, mouse. The procedure: Ferroptosis was initiated by RSL3 (2 μM final concentration) in Q7 cells as described above. The protective activity of co-treated compounds was assessed also as described above. Four to five hours after RSL3 treatment, the conditioned medium was collected into 1.2-mL cluster tubes containing ice-cold acetonitrile at a ratio of 1:2. Tubes were snap frozen on dry ice and stored at -80°C.
Prior to analysis, samples were thawed on wet ice and then vortexed briefly. Samples were centrifuged at 4000 rpm for 15min at 4°C. Supernatant (40 μL) was transferred to a 96-well injection plate and 10 μL of both internal standard and HPLC grade water were added. A Shimadzu Nexera MP system coupled to a Sciex 6500 Qtrap and configured for micro-flow was used to analyze all samples. Samples were maintained at 4°C in the Nexera MP autosampler for the duration of the analytical run.
A Thermo Gold-C8 column (1.9 μm, 1.0 x 100 mm) operated at 45°C was used for chromatographic separation. The total run time of the liquid chromatography method was 10 min. Mobile phase A consisted of water with 0.1% formic acid. Mobile phase B was composed of 0.1% formic acid in 3:1 acetonitrile:isopropyl alcohol. Gradient elution was employed, with mobile phase B being ramped from 5% at 0min, to 50% at 2 min, and finally 98% at 7.5 min. Electrospray conditions for the μLC-ESI-MS/MS method were optimized for a flow rate of 125 μL/min and were as follows: Ion spray voltage was set to -4500 V, temperature of 250°C, curtain gas of 20, CAD gas of 10, and ion source gas 1 and 2 of 20 and 40 psi, respectively. Analyzer parameters were optimized for each compound using a combination of manual tuning and compound optimization. The following MRM transitions were used to quantify concentrations of 15-HETE, 12-HETE and Arachidonic Acid (AA). 15-HETE: 319→219; 12-HETE: 319→179; AA: 303→259.

Series [5] in a line: ORAC (oxygen radical absorbance capacity) assay. To be noted: average of 25 and 12.5 μM compound; mean, SEM, n = 6. The protocol: ORAC assay kits were purchased from Cell Biolabs. Assays were performed per the manufacturer’s instructions for lipophilic samples with minor modifications. DMSO stock solutions of compounds were diluted in an anaerobic glovebox to final concentrations of 25 and 12.5 μM in triplicate. A standard curve of Trolox® between 0–100 μM in triplicate per concentration was also generated on each assay plate. Diluted compounds and standards were removed from the glovebox and reactions initiated by addition of aerobic fluorescein reagent and radical initiator. Fluorescein fluorescence was monitored at excitation wavelength of 480 nm and emission wavelength of 520 nm every minute for one hour. AUC analysis was performed as described in the kit protocol. The “Trolox equivalents” at each concentration of test compound were calculated and the average Trolox equivalents at the two compound concentrations are presented. The errors were determined by propagating errors from the SEMs of the triplicate determinations to the averages across the two triplicate determinations.

Series [6] is described as follows: Radical-trapping antioxidant (RTA) activity assay in DOPC liposomes. The settings on record: for Radical Trapping Assay AUC (Rel. Control): 50 μM compound, 2 mol% in DOPC liposomes, BODIPY 581/591 C11 quenching, liposome-only control = 1; for RTA AUC fold greater than αTQ and αTHQ: DOPC liposomes, AUC relative to liposome only control.
Series [7] has as its system Q7 cells. As to the kind of experiment: Cellular quantification of αTCC in Q7 cells (LC-MS/MS, succinate capping). The series is classed as in vitro ADME, mouse. The settings on record: 6 technical replicates in each of 4 experiments. The procedure:
Due to poor ionization of αTCC, the succinate capping method was used for quantification of the succinate ester derivative formed by cell lysis with 100 mg/mL succinic anhydride in 95:5 (acetonitrile:triethylamine).
Q7 cells were cultured in standard culture medium for 18 hours prior to compound addition. After the specified treatment time, the culture medium was removed and adherent cells were washed with PBS. The wash was removed and adherent cells were harvested by adding 1 mL of 100 mg/mL succinic anhydride in 95:5 (acetonitrile:triethylamine) followed by immediate cell scrapping. After cell scrapping, samples were transferred to a 1.5 mL Eppendorf tube, vortexed for 15 seconds, and kept on wet ice until all samples were harvested. […]
Samples were analyzed using a developed method on a Shimadzu 30AD using micro-flow with a Shimadzu SIL-30AC autosampler, and coupled to an AB Sciex 6500+ QTRAP mass spectrometer. […] Analyzer parameters were optimized for each compound using a combination of manual tuning and compound optimization. αTCC was measured as αTCC-succinate. […]
A Phenomenex Kinetex C18 (2.1 x 50 mm, 1.3 µm) column using a reverse phase gradient mobile phase method was used for chromatographic separation. […] Data were analyzed using Sciex Analyst Chromatography software, version 1.6.2 and Sciex MultiQuant software. […]

For series [8], the system named is Q7 cells. As to the kind of experiment: Intracellular quantification of αT, αTQ and αTHQ in Q7 cells (LC-MS/MS, succinate capping). The settings on record: αTQ 10 μM, 24 h.
The test system of series [9] is Q7 cells. To be noted: mouse.
The mark [10] stands for this setting: Mus musculus, 18 h, read-out: RSL3 Ferroptosis Cell Assay Average EC50, Q7 cells, RSL3 2 μM, 18 h co-treatment, CellTiter-Glo 2.0.
[11] abbreviates: read-out: RSL3 Ferroptosis Cell Assay Average EC50, Q7 cells, RSL3 2 μM, 18 h co-treatment, CellTiter-Glo 2.0.

Structures are written as SMILES. Where “and” joins values, the source holds several entries; their conditions need not be identical. Equal values may be shown once. Read-outs that look alike come from different tables or passages of the source.

Usually IC50 stands for the concentration that gives 50% inhibition. Usually EC50 stands for the concentration that produces a half-maximal response. On to `Cc1c(C)c2c(c(C)c1O)CC[C@@](C)(CCC[C@H](C)CCC[C@H](C)CCCC(C)C)O2` [αT, α-tocopherol, reference compound], for which the “effect on RSL3-induced lipid oxidation (BODIPY 581/591 C11 oxidation)” value in the series with Q7 cells [1] is recorded as “prevented”. Moreover, in series [2], the “inhibition of rabbit 15-LO enzyme activity” value (“inhibition” for short) is reported as “did not”, the IC50 is greater than 100 µM and the activity at 100 µM worked out at 78%. Besides, the EC50 in series [3] (setting [10]) came out at 5.16 µM. Besides, the EC50 in [3] (setting [11]) amounted to 5.2 ± 2.8 µM. Moreover, in series [4] (RSL3 co-treatment, compound 10 μM), the “reduction of RSL3-induced 15-HETE production” value is listed as 19%. The “ORAC Antioxidant Activity Assay Trolox Equiv.” value in series [5] was 0.073 Trolox Equiv. and 0.073 ± 0.008 Trolox Equiv. In series [6], the “Radical Trapping Assay AUC (Rel. Control)” value (shortened to “Radical Trapping Assay AUC”) was determined as 5.123; the “RTA AUC fold greater than αTQ and αTHQ” value is listed as 2.5–4 fold.

As for `Cc1c(C)c2c(c(C)c1O)CCC(C)(CCCC(C)CCCC(C)CCCC(C)C)C2` (stereo not drawn) [αTCC, 1,3,4,6-Tetramethyl-6-(4,8,12-trimethyltridecyl)-5,6,7,8-tetrahydronaphthalen-2-ol], in series [2], the “inhibition” value is “did not”, the IC50 is greater than 100 µM and the activity at 100 µM was determined as 77%. Also, the EC50 in series [3] (setting [10]) was greater than 30 µM. The “rescue at 30 μM” value in series [3] (Q7 cells, RSL3 2 μM, 30 μM highest concentration tested, mean ± SD, N = 7) was found to be 42 ± 21%. Moreover, the “ORAC Antioxidant Activity Assay Trolox Equiv.” value in series [5] was 0.075 Trolox Equiv. and 0.075 ± 0.008 Trolox Equiv. Besides, in series [6], the “Radical Trapping Assay AUC” value is on record as 4.706; the “RTA AUC fold greater than αTQ and αTHQ” value is 2.5–4 fold. The “cellular exposure of αTCC” value with Q7 cells [7] is greater than 50 µM.

`CC1=C(C)C(=O)C(CC[C@](C)(O)CCC[C@H](C)CCC[C@H](C)CCCC(C)C)=C(C)C1=O` [αTQ, α-tocopherol quinone]: the “effect on RSL3-induced lipid oxidation (BODIPY 581/591 C11 oxidation)” value with Q7 cells [1] is reported as “prevented”. In series [2], the “inhibition” value is on record as “did not”, the IC50 is greater than 100 µM and the activity at 100 µM came to 75%. In the series on Q7 cells [8], the “cellular exposure of αT after αTQ supplementation (back-conversion)” value was “unaffected” and the “cellular αTQ exposure after αTQ supplementation” value is reported as “over 250 μM”. Besides, the EC50 in series [3] (setting [10]) was 0.233 µM. In addition, in series [3] (Q7 cells, RSL3, EC50 ratio vs αT), the “fold more potent than αT in preventing ferroptotic cell death” value turned out to be 22 fold. The EC50 in [3] (setting [11]) was 0.23 ± 0.1 µM. Also, the IC50 in [4] (Mus musculus, RSL3 2 μM, conditioned medium 4-5 h, read-out: IC50 for RSL3-induced cellular release of 15-HETE) stood at 0.6 µM. Further, in series [4] (RSL3, compound 5 μM), the “effect on 12-HETE levels” value is reported as “not altered” and the “effect on cellular or released AA levels” value is listed as “no effect”. In addition, the “effect on RSL3-dependent induction of cellular and released 15-HETE” value in [4] (compound 5 μM) is reported as “inhibited”. Also, in the series on Q7 cells [9], the “fold increase in cellular αTHQ after αTQ supplementation” value is given as greater than 600 fold and the “fold increase in cellular αTQ after αTQ supplementation” value is recorded as greater than 300 fold. Besides, the “ORAC Antioxidant Activity Assay Trolox Equiv.” value in series [5] was found to be 0.044 Trolox Equiv. Besides, the “Radical Trapping Assay AUC” value in series [6] turned out to be 1.217.

The values above are taken from article PMC6093661, “Vitamin E hydroquinone is an endogenous regulator of ferroptosis via redox control of 15-lipoxygenase” (PLoS ONE, 2018).
